In patent US20210186960A1, “MODULATORS OF INDOLEAMINE 2,3-DIOXYGENASE” (GLAXOSMITHKLINE INTELLECTUAL PROPERTY DEVELOPMENT LIMITED, priority 2017, published 2021):
Several values for one entry are separate records, joined by “and”; a condition that tells them apart may be missing. Equal values may be shown once. Read-outs that look alike come from different tables or passages of the source.

Key:
[1] = Plasma PK and tissue distribution after oral dosing of prodrug EXAMPLE 7 (5 mg/kg); format: in vivo; conditions: PO 5 mg/kg EXAMPLE 7 (prodrug), analyte as labelled
Method: Tissue Distribution of drug intermediate C4 from oral dosing of C4 and of intermediate C4 from oral dosing of example 7 in rats
• Wistar Han rat, 185-197 g, male, N=8, purchased from Beijing Vital River Co. LTD. Qualification No.: SCXK(J) 2016-0011 11400700240027. Fasted overnight and fed 4 hr post dose. PO: 5 mg/kg (10 mL/kg) via oral gavage(N=8). Sampling at 1, 4, 8 and 24 hr , 4 time points, terminal bleeding for plasma, liver, lymph nodes and spleen collected at each time point

[2] = system: human peripheral blood mononuclear cells (PBMC); assay: PBMC cytotoxicity assay (CellTiter-Glo); format: cell-based; conditions: pCC50, CellTiter-Glo, stimulated human PBMC, 2 days
Method: Compounds of the present invention were tested via high-throughput cellular assays utilizing detection of kynurenine via mass spectrometry and cytotoxicity as end-points. For the mass spectrometry and cytotoxicity assays, human peripheral blood mononuclear cells (PBMC) (PB003F; AllCells®, Alameda, Calif.) were stimulated with human interferon-γ (IFN-γ) (Sigma-Aldrich Corporation, St. Louis, Mo.) and lipopolysaccharide from Salmonella minnesota (LPS) (Invivogen, San Diego, Calif.) to induce the expression of indoleamine 2, 3-dioxygenase (IDO1). Compounds with IDO1 inhibitory properties decreased the amount of kynurenine produced by the cells via the tryptophan catabolic pathway. Cellular toxicity due to the effect of compound treatment was measured using CellTiter-Glo® reagent (CTG) (Promega Corporation, Madison, Wis.), which is based on luminescent detection of ATP, an indicator of metabolically active cells.
In preparation for the assays, test compounds were serially diluted 3-fold in
DMSO from a typical top concentration of 1 mM or 5 mM and plated at 0.5 μL in 384-well, polystyrene, clear bottom, tissue culture treated plates with lids (Greiner Bio-One, Kremsmünster, Austria) to generate 11-point dose response curves. Low control wells (0% kynurenine or 100% cytotoxicity) contained either 0.5 μL of DMSO in the presence of unstimulated (−IFN-γ/−LPS) PBMCs for the mass spectrometry assay or 0.5 μL of DMSO in the absence of cells for the cytotoxicity assay, and high control wells (100% kynurenine or 0% cytotoxicity) contained 0.5 μL of DMSO in the presence of stimulated (+IFN-γ/+LPS) PBMCs for both the mass spectrometry and cytotoxicity assays.
Frozen stocks of PBMCs were washed and recovered in RPMI 1640 medium (Thermo Fisher Scientific, Inc., Waltham, Mass.) supplemented with 10% v/v heat-inactivated fetal bovine serum (FBS) (Thermo Fisher Scientific, Inc., Waltham, Mass.), and 1× penicillin-streptomycin antibiotic solution (Thermo Fisher Scientific, Inc., Waltham, Mass.). The cells were diluted to 1,000,000 cells/mL in the supplemented RPMI 1640 medium. 50 μL of either the cell suspension, for the mass spectrometry assay, or medium alone, for the cytotoxicity assay, were added to the low control wells, on the previously prepared 384-well compound plates, resulting in 50,000 cells/well or 0 cells/well respectively. IFN- y and LPS were added to the remaining cell suspension at final concentrations of 100 ng/ml and 50 ng/ml respectively, and 50 μL of the stimulated cells were added to all remaining wells on the 384-well compound plates. The plates, with lids, were then placed in a 37 °C, 5% CO2 humidified incubator for 2 days.
Following incubation, the 384-well plates were removed from the incubator and allowed to equilibrate to room temperature for 30 minutes. For the cytotoxicity assay, CellTiter-Glo® was prepared according to the manufacturer's instructions, and 40 μL were added to each plate well. After a twenty minute incubation at room temperature, luminescence was read on an EnVision® Multilabel Reader (Perkin Elmer Inc., Waltham, Mass.). For the mass spectrometry assay, 10 μL of supernatant from each well of the compound-treated plates were added to 40 μL of acetonitrile, containing 10 μM of an internal standard for normalization, in 384-well, polypropylene, V-bottom plates (Greiner Bio-One, Kremsmunster, Austria) to extract the organic analytes. Following centrifugation at 2000 rpm for 10 minutes, 10 μL from each well of the acetonitrile extraction plates were added to 90 μL of sterile, distilled H2O in 384-well, polypropylene, V-bottom plates for analysis of kynurenine and the internal standard on the RapidFire 300 (Agilent Technologies, Santa Clara, Calif.) and 4000 QTRAP MS (SCIEX, Framingham, Mass.). MS data were integrated using Agilent Technologies' RapidFire Integrator software, and data were normalized for analysis as a ratio of kynurenine to the internal standard. […]

[3] = male Wistar Han rat, 1 hr, 5 mg/kg
[4] = male Wistar Han rat, 4 hr, 5 mg/kg

In the case of `CC(C)CN(c1ccc([C@H](C)CC(=O)O)cc1Nc1cnc(Cl)cn1)C1CCOCC1` [intermediate C4], the “Lymph node to plasma ratio individual” value [1, 3] is reported as 2.99, the “Spleen to plasma ratio individual” value [1, 3] is reported as 0.677 and the “lymph node Concentration individual” value [1, 3] is reported as 685 ng/g. The “plasma Concentration individual” value [1, 3] was 229 ng/mL, the “spleen Concentration individual” value [1, 3] was 155 ng/g and the “Lymph node to plasma ratio individual” value [1, 4] was 2.15. For the same molecule, the “Spleen to plasma ratio individual” value [1, 4] was 0.260, the “lymph node Concentration individual” value [1, 4] was 63.1 ng/g and the “spleen Concentration individual” value [1, 4] was 23.1 ng/g and 7.65 ng/g. The “spleen Concentration Mean” value ([1]; male Wistar Han rat, 8 hr) was “BQL”, the “spleen Concentration individual” value ([1]; male Wistar Han rat, 8 hr) was “BQL” and the “lymph node Concentration individual” value ([1]; male Wistar Han rat, 8 hr, 5 mg/kg) was 16.3 ng/g and 6.17 ng/g. The “liver Concentration Mean” value ([1]; male Wistar Han rat, 24 hr) was “BQL”, the “liver Concentration individual” value ([1]; male Wistar Han rat, 24 hr) was “BQL” and the “lymph node Concentration Mean” value ([1]; male Wistar Han rat, 24 hr) was “BQL”. For the same molecule, the “lymph node Concentration individual” value ([1]; male Wistar Han rat, 24 hr) was “BQL”, the “plasma Concentration Mean” value ([1]; male Wistar Han rat, 24 hr) was “BQL” and the “plasma Concentration individual” value ([1]; male Wistar Han rat, 24 hr) was “BQL”. For the same molecule, the “spleen Concentration Mean” value ([1]; male Wistar Han rat, 24 hr) was “BQL”, the “spleen Concentration individual” value ([1]; male Wistar Han rat, 24 hr) was “BQL” and the AUC(0-t) ([1]; lymph node, male Wistar Han rat, read-out: AUClast (lymph node)) was 1890 ng·h/mL. It also gave a concentration at 1 h ([1]; male, Wistar Han, rat, lymph node, po, 5 mg/kg, 1 hr, read-out: lymph node Concentration Mean) of 807 ng/g, a concentration at 1 h ([1]; male, Wistar Han, rat, lymph node, po, 5 mg/kg, 1 hr, read-out: lymph node Concentration individual) of 928 ng/g and a concentration at 4 h ([1]; male, Wistar Han, rat, lymph node, po, 5 mg/kg, 4 hr, read-out: lymph node Concentration Mean) of 73.8 ng/g. It also gave a concentration at 4 h ([1]; male, Wistar Han, rat, lymph node, po, 5 mg/kg, 4 hr, read-out: lymph node Concentration individual) of 84.4 ng/g, a concentration at 8 h ([1]; male, Wistar Han, rat, lymph node, po, 5 mg/kg, 8 hr) of 11.2 ng/g and a Kp at 1 h ([1]; male, Wistar Han, rat, lymph node/plasma, po, 5 mg/kg, 1 hr, read-out: Lymph node to plasma ratio Mean) of 3.86. For the same molecule, the Kp at 1 h ([1]; male, Wistar Han, rat, lymph node/plasma, po, 5 mg/kg, 1 hr, read-out: Lymph node to plasma ratio individual) was 4.73, the Kp at 4 h ([1]; male, Wistar Han, rat, lymph node/plasma, po, 5 mg/kg, 4 hr, read-out: Lymph node to plasma ratio Mean) was 1.66 and the Kp at 4 h ([1]; male, Wistar Han, rat, lymph node/plasma, po, 5 mg/kg, 4 hr, read-out: Lymph node to plasma ratio individual) was 1.16. For the same molecule, the Kp at 8 h ([1]; male, Wistar Han, rat, lymph node/plasma, po, 5 mg/kg, 8 hr, read-out: Lymph node to plasma ratio Mean) was 0.994, the Kp at 8 h ([1]; male, Wistar Han, rat, lymph node/plasma, po, 5 mg/kg, 8 hr, read-out: Lymph node to plasma ratio individual) was 0.994 and the Kp ([1]; male, Wistar Han, rat, lymph node/plasma, po, 5 mg/kg, read-out: AUClimphnode/AUCplasma) was 2.99. For the same molecule, the concentration at 1 h ([1]; male, Wistar Han, rat, plasma, po, 5 mg/kg, 1 hr, read-out: plasma Concentration Mean) was 213 ng/mL, the concentration at 1 h ([1]; male, Wistar Han, rat, plasma, po, 5 mg/kg, 1 hr, read-out: plasma Concentration individual) was 196 ng/mL and the concentration at 1 h ([1]; male, Wistar Han, rat, spleen, po, 5 mg/kg, 1 hr, read-out: spleen Concentration Mean) was 165 ng/g. The concentration at 1 h ([1]; male, Wistar Han, rat, spleen, po, 5 mg/kg, 1 hr, read-out: spleen Concentration individual) was 175 ng/g, the concentration at 4 h ([1]; male, Wistar Han, rat, spleen, po, 5 mg/kg, 4 hr, read-out: spleen Concentration Mean) was 15.4 ng/g and the Kp at 1 h ([1]; male, Wistar Han, rat, spleen/plasma, po, 5 mg/kg, 1 hr, read-out: Spleen to plasma ratio Mean) was 0.785. The Kp at 1 h ([1]; male, Wistar Han, rat, spleen/plasma, po, 5 mg/kg, 1 hr, read-out: Spleen to plasma ratio individual) was 0.893, the Kp at 4 h ([1]; male, Wistar Han, rat, spleen/plasma, po, 5 mg/kg, 4 hr, read-out: Spleen to plasma ratio Mean) was 0.289 and the Kp at 4 h ([1]; male, Wistar Han, rat, spleen/plasma, po, 5 mg/kg, 4 hr, read-out: Spleen to plasma ratio individual) was 0.319. For the same molecule, the Kp ([1]; male, Wistar Han, rat, spleen/plasma, po, 5 mg/kg, read-out: AUCspleen/AUCplasma) was 0.558, the AUC(0-t) ([1]; spleen, male Wistar Han rat, read-out: AUClast (spleen)) was 353 ng·h/mL and the “PBMC TOX PXC50” value [2] was less than 5.
